Laboratory results: ChEMBL document CHEMBL1201862, “PubChem BioAssay data set” (2004)
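Assay format: 96-well plates, 48-hour exposure. Abbreviation: GI50, concentration required for 50% inhibition of growth.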 Calls of active or inactive are those of the source. Rule as the data show it: active = GI50 up to about 1.1 µM and inactive = higher.

How the values were obtained:
Assay in all cases: NCI tumour cell line growth inhibition, 48 h
EKVX = system: EKVX
HL-60 = system: HL-60
K562 = system: K562
OVCAR-3 = system: OVCAR-3
SK-MEL-2 = system: SK-MEL-2
HOP-62 = system: HOP-62
BT-549 = system: BT-549
UACC-62 = system: UACC-62
RPMI-8226 = system: RPMI-8226
ACHN = system: ACHN
OVCAR-4 = system: OVCAR-4
COLO 205 = system: COLO 205
786-0 = system: 786-0
SF-539 = system: SF-539
NCI-H460 = system: NCI-H460
MDA-MB-435 = system: MDA-MB-435
SF-268 = system: SF-268
UO-31 = system: UO-31
SW-620 = system: SW-620
DU-145 = system: DU-145
NCI-H226 = system: NCI-H226
NCI-H23 = system: NCI-H23
Malme-3M = system: Malme-3M
SR = system: SR
SK-MEL-5 = system: SK-MEL-5
M14 = system: M14
KM12 = system: KM12
TK-10 = system: TK-10
NCI-H522 = system: NCI-H522
SF-295 = system: SF-295
HCC 2998 = system: HCC 2998
IGROV-1 = system: IGROV-1
MDA-N = system: MDA-N
UACC-257 = system: UACC-257
HT-29 = system: HT-29
SN12C = system: SN12C
CCRF-CEM = system: CCRF-CEM
SNB-19 = system: SNB-19
A549 = system: A549
SNB-75 = system: SNB-75
SK-MEL-28 = system: SK-MEL-28
OVCAR-8 = system: OVCAR-8
SK-OV-3 = system: SK-OV-3
T47D = system: T47D
CAKI-1 = system: CAKI-1
NCI/ADR-RES = system: NCI/ADR-RES
U-251 = system: U-251
OVCAR-5 = system: OVCAR-5
PC-3 = system: PC-3
MCF7 = system: MCF7
Hs-578T = system: Hs-578T
HCT-15 = system: HCT-15
LOX IMVI = system: LOX IMVI
HCT-116 = system: HCT-116
MOLT-4 = system: MOLT-4
RXF 393 = system: RXF 393
HOP-92 = system: HOP-92
MDA-MB-231 = system: MDA-MB-231

In the case of O=C(CCCn1ccnc1[N+](=O)[O-])NCCn1cnc([N+](=O)[O-])c1, the GI50 (EKVX) is reported as > 100 µM (inactive), the GI50 (HL-60) is reported as > 100 µM (inactive) and the GI50 (K562) is reported as > 100 µM (inactive). The GI50 (OVCAR-3) was > 100 µM (inactive), the GI50 (SK-MEL-2) was > 100 µM (inactive) and the GI50 (HOP-62) was > 100 µM (inactive). The GI50 (BT-549) was > 100 µM (inactive), the GI50 (UACC-62) was > 100 µM (inactive) and the GI50 (RPMI-8226) was > 100 µM (inactive). For the same molecule, the GI50 (ACHN) was > 100 µM (inactive), the GI50 (OVCAR-4) was > 100 µM (inactive) and the GI50 (COLO 205) was > 100 µM (inactive). For the same molecule, the GI50 (786-0) was > 100 µM (inactive), the GI50 (SF-539) was > 100 µM (inactive) and the GI50 (NCI-H460) was > 100 µM (inactive). For the same molecule, the GI50 (MDA-MB-435) was > 100 µM (inactive), the GI50 (SF-268) was > 100 µM (inactive) and the GI50 (UO-31) was > 100 µM (inactive). The GI50 (SW-620) was > 100 µM (inactive), the GI50 (DU-145) was > 100 µM (inactive) and the GI50 (NCI-H226) was > 100 µM (inactive). The GI50 (NCI-H23) was > 100 µM (inactive), the GI50 (Malme-3M) was > 100 µM (inactive) and the GI50 (SR) was > 100 µM (inactive). The GI50 (SK-MEL-5) was > 100 µM (inactive), the GI50 (M14) was > 100 µM (inactive) and the GI50 (KM12) was > 100 µM (inactive). For the same molecule, the GI50 (TK-10) was > 100 µM (inactive), the GI50 (NCI-H522) was > 100 µM (inactive) and the GI50 (SF-295) was > 100 µM (inactive). For the same molecule, the GI50 (HCC 2998) was > 100 µM (inactive), the GI50 (IGROV-1) was > 100 µM (inactive) and the GI50 (MDA-N) was > 100 µM (inactive). For the same molecule, the GI50 (UACC-257) was > 100 µM (inactive), the GI50 (HT-29) was > 100 µM (inactive) and the GI50 (SN12C) was > 100 µM (inactive). The GI50 (CCRF-CEM) was > 100 µM (inactive), the GI50 (SNB-19) was > 100 µM (inactive) and the GI50 (A549) was > 100 µM (inactive). For the same molecule, the GI50 (SNB-75) was > 100 µM (inactive), the GI50 (SK-MEL-28) was > 100 µM (inactive) and the GI50 (OVCAR-8) was > 100 µM (inactive). For the same molecule, the GI50 (SK-OV-3) was > 100 µM (inactive), the GI50 (T47D) was > 100 µM (inactive) and the GI50 (CAKI-1) was > 100 µM (inactive). The GI50 (NCI/ADR-RES) was > 100 µM (inactive), the GI50 (U-251) was > 100 µM (inactive) and the GI50 (OVCAR-5) was > 100 µM (inactive). For the same molecule, the GI50 (PC-3) was > 100 µM (inactive), the GI50 (MCF7) was > 100 µM (inactive) and the GI50 (Hs-578T) was > 100 µM (inactive). The GI50 (HCT-15) was over 100 µM, the GI50 (LOX IMVI) was > 100 µM (inactive) and the GI50 (HCT-116) was > 100 µM (inactive). The GI50 (MOLT-4) was > 100 µM (inactive).

With Cc1cc(C)nc(NS(=O)(=O)c2ccc(Nc3nnc(/C=C/c4c(O)ccc5ccccc45)c(=O)n3N)cc2)n1 the GI50 (EKVX) was 38.4 µM (inactive), the GI50 (HL-60) was 22.1 µM (inactive) and the GI50 (K562) was 27.6 µM (inactive). The GI50 (OVCAR-3) was 13.2 µM (inactive), the GI50 (HOP-62) was 37.4 µM (inactive) and the GI50 (BT-549) was 32.7 µM (inactive). The GI50 (UACC-62) was 29 µM (inactive), the GI50 (RPMI-8226) was 30.1 µM (inactive) and the GI50 (ACHN) was 23 µM (inactive). The GI50 (OVCAR-4) was 22.5 µM (inactive), the GI50 (786-0) was 28.6 µM (inactive) and the GI50 (MDA-MB-435) was 20.1 µM (inactive). The GI50 (SF-268) was 33.7 µM (inactive), the GI50 (UO-31) was 26 µM (inactive) and the GI50 (SW-620) was 43.9 µM (inactive). For the same molecule, the GI50 (DU-145) was 36.4 µM (inactive), the GI50 (NCI-H23) was 19.1 µM (inactive) and the GI50 (Malme-3M) was 36.6 µM (inactive). The GI50 (SR) was 18.8 µM (inactive), the GI50 (M14) was 22.1 µM (inactive) and the GI50 (SF-295) was 61.1 µM (inactive). For the same molecule, the GI50 (IGROV-1) was 27.9 µM (inactive), the GI50 (MDA-N) was 25.6 µM (inactive) and the GI50 (HT-29) was 57.8 µM (inactive). The GI50 (SN12C) was 22.3 µM (inactive), the GI50 (CCRF-CEM) was 12 µM (inactive) and the GI50 (SNB-19) was 43.1 µM (inactive). For the same molecule, the GI50 (RXF 393) was 18.6 µM (inactive), the GI50 (A549) was 30.7 µM (inactive) and the GI50 (SNB-75) was 17.3 µM (inactive). For the same molecule, the GI50 (OVCAR-8) was 25.7 µM (inactive), the GI50 (SK-OV-3) was 51.4 µM (inactive) and the GI50 (T47D) was 11.1 µM (inactive). For the same molecule, the GI50 (CAKI-1) was 22.1 µM (inactive), the GI50 (NCI/ADR-RES) was 20 µM (inactive) and the GI50 (OVCAR-5) was 39.3 µM (inactive). For the same molecule, the GI50 (MCF7) was 17.7 µM (inactive), the GI50 (Hs-578T) was 79.4 µM (inactive) and the GI50 (HCT-15) was 10.9 µM. The GI50 (HOP-92) was 47.5 µM (inactive), the GI50 (HCT-116) was 17.9 µM (inactive) and the GI50 (MOLT-4) was > 100 µM (inactive).

NC1=Nc2ccccc2Sc2nc3ccccc3n21 was tested, and the GI50 (HL-60) was 2.4 µM (inactive), the GI50 (K562) was 9.38 µM (inactive) and the GI50 (OVCAR-3) was 8.02 µM (inactive). For the same molecule, the GI50 (HOP-62) was 52.5 µM (inactive), the GI50 (BT-549) was 34.3 µM (inactive) and the GI50 (MDA-MB-231) was 19.1 µM (inactive). For the same molecule, the GI50 (UACC-62) was 23.9 µM (inactive), the GI50 (RPMI-8226) was 4.46 µM (inactive) and the GI50 (ACHN) was 29.7 µM (inactive). The GI50 (OVCAR-4) was 7.85 µM (inactive), the GI50 (COLO 205) was 7.8 µM (inactive) and the GI50 (786-0) was 2.23 µM (inactive). For the same molecule, the GI50 (SF-539) was 21.1 µM (inactive), the GI50 (NCI-H460) was 17.2 µM (inactive) and the GI50 (SF-268) was 18.4 µM (inactive). The GI50 (UO-31) was 7.5 µM (inactive), the GI50 (SW-620) was 46.1 µM (inactive) and the GI50 (DU-145) was 39.6 µM (inactive). For the same molecule, the GI50 (NCI-H226) was 10.4 µM (inactive), the GI50 (NCI-H23) was 25.5 µM (inactive) and the GI50 (Malme-3M) was > 100 µM (inactive). For the same molecule, the GI50 (SR) was 4.49 µM (inactive), the GI50 (SK-MEL-5) was 5.4 µM (inactive) and the GI50 (M14) was 5.46 µM (inactive). The GI50 (KM12) was 27.2 µM (inactive), the GI50 (TK-10) was > 100 µM (inactive) and the GI50 (NCI-H522) was 13.9 µM (inactive). The GI50 (SF-295) was 43.3 µM (inactive), the GI50 (IGROV-1) was 34.4 µM (inactive) and the GI50 (MDA-N) was 5.13 µM (inactive). The GI50 (UACC-257) was 26.1 µM (inactive), the GI50 (HT-29) was 9.12 µM (inactive) and the GI50 (SN12C) was 48.2 µM (inactive). For the same molecule, the GI50 (CCRF-CEM) was 3.33 µM (inactive), the GI50 (SNB-19) was 50.1 µM (inactive) and the GI50 (RXF 393) was 19.4 µM (inactive). For the same molecule, the GI50 (A549) was 26.7 µM (inactive), the GI50 (SNB-75) was 15.6 µM (inactive) and the GI50 (SK-OV-3) was 17.1 µM (inactive). For the same molecule, the GI50 (T47D) was 21.6 µM (inactive), the GI50 (NCI/ADR-RES) was 27 µM (inactive) and the GI50 (U-251) was 5.9 µM (inactive). The GI50 (OVCAR-5) was 8.15 µM (inactive), the GI50 (PC-3) was 9.62 µM (inactive) and the GI50 (MCF7) was 5.53 µM (inactive). The GI50 (Hs-578T) was 55.7 µM (inactive), the GI50 (HCT-15) was 35.5 µM and the GI50 (LOX IMVI) was 18.9 µM (inactive). The GI50 (HOP-92) was 22.7 µM (inactive), the GI50 (HCT-116) was 5.47 µM (inactive) and the GI50 (MOLT-4) was 4.54 µM (inactive).
